Data published in patent US10253085B2, “CD31 peptides for the treatment of thrombotic or autoimmune disorders” (INSERM (INSTITUT NATIONAL DE LA SANTE ET DE LA RECHERCHE …, priority 2008, dated 2019).
Entries after “also recorded” stand apart in the source; their conditions may differ.

Key:
T-cell activation = assay: In vitro inhibition of T-cell activation (summary statements); format: cell-based
[1] = tested on: spleen cells from C57Bl/6 (CD31^+/+) mice; assay: Proliferation in response to TCR stimulation, CD31+/+ spleen cells; format: cell-based, mouse; conditions: peptide 25, 50, 100 μM; scramble peptide 100 μM
Experimental: CD8^+ T cell-mediated cytolytic activity against allogeneic mouse aortic smooth muscle cells and measurement of macrophage gelatinase (MMP-2/9) activity were performed as previously described for human cells in Caligiuri et al. (2006 Arterioscler Thromb Vasc Biol 26:618-623) using kits and reagents from Invitrogen. Briefly, primary cultures of FVB/N mouse aorta smooth muscle cells were labelled with the lipophylic tracer DIO (green) and co-cultured for 3 hours with CD8+ T cell-enriched spleen cells from C57Bl/6 mice (n=3 scramble peptide and n=3 peptide 551-574, 50 μM). Cytolysis was evaluated by intracellular accumulation of propidium iodide (PI). Cells were analysed by flow cytometry and the % of cytolysis was calculated by expressing the number of dead (PI+) cells among the target (DIO+) cells. Intracellular MMP-2/9 (gelatinase) activity was measured by flow cytometry in 7-day bone-marrow derived macrophages from C57Bl/6 mice (n=3 scramble peptide and n=3 peptide 551-574, 50 μM) three hours after the incorporation of OregonGreen® gelatine (MFI). T-cell proliferation was performed using either human peripheral blood mononuclear cells of spleen cells from C57Bl/6 (CD31^+/+) and CD31^−/− mice (Charles River France) as previously described (Caligiuri et al. 2005 Arterioscler Thromb Vasc Biol 25:1659-1664). Briefly, cells were plated in triplicates at 0.2×10^6 cells/well in a U bottom 96-well plate in complete medium (RPMI 1640, 1% pyruvate, 1% glutamine, 1% penicillin-streptomicyne-fungizone, 10% decomplemented fetal calf serum, all from Invitrogen) containing 1 μg/ml anti-mouse CD3/CD28 or 5 μg/ml anti-human CD3 antibodies (BD) as appropriate. CD31 (551-574) and scramble peptide at 25, 50 and 100 μM final concentration were deposited in the wells just before cell plating. Plated cells were cultured for 72 hours in 5% CO2 at 37° C. (^3H) thymidine (0.5 μCi/well) was added for the last 16 hours and proliferation evaluated using a Tomtec harvester and analysis on a Wallac micro beta counter. Data are expressed as mean±SEM of cpm in triplicates.

[2] = tested on: BALB/c mice primed with TNCB; assay: Delayed type hypersensitivity (DTH) suppression model; format: in vivo, mouse; conditions: single subcutaneous administration; peptide 10, 50, 100 μM; scramble 100 μM
Experimental: Delayed type hypersensitivity (DTH) suppression was evaluated as described in the “Current Protocols in Immunology (2001) 4.0.1-4.0.2 Unit 4.2”. Briefly, TNCB (2-chloro-1,3,5-trinitrobenzene, Fluka #79874) was dissolved in acetone/olive oil (1:1 v/v) at a concentration of 10 mg/ml. BALB/c mice (n=6/group) were primed by painting the shaved regions of the abdomen a with a total 0.2 ml of the preparation (n=6/group). The experiment included 3 groups for peptide 551-574 (10, 50, 100 μM) and 1 group treated with scramble peptide at 100 μM). Five days after priming, 10 μl of the TNCB-solvent mixture was painted on the right pinna, 30 minutes after subcutaneous (interscapolar) administration of the peptide 551-574 or the scramble peptide. Ear thickness increases were calculated by subtracting the thickness of the right and the left pinna of each mouse (right-left/left×100), measured at 24 h with a dial caliper (“Pocotest”, Kroeplin Längenmesstechnick). The measure was performed 5 times on each ear and averaged for further analysis. The immunosuppressive effect of the peptide was calculated as % suppression=(1−ΔTE/ΔTS)×100, where ΔT=(ear thickness 24 hr after elicitation)−(baseline ear thickness), […]. Data are expressed as mean±SEM.

[3] = tested on: C57BL/6J mice immunized with MOG35-55 peptide; assay: Experimental Autoimmune Encephalomyelitis (EAE) model; format: in vivo, mouse
Experimental: Twelve-week old female C57BL/6J mice were immunized with 300 μg of MOG35-55 peptide emulsified in Complete Freund's Adjuvant 1:1 by volume containing 800 μg of nonviable desiccated Mycobacterium tuberculosis H37RA. A final volume of 200 μl of the emulsion was injected subcutaneously at 4 sites (50 μl/site) over the flanks. In addition, 300 ng of Pertussis toxin was injected intravenously (retro-orbital plexus) on the same day and 2 days later. Clinical signs of EAE ware assessed daily by the following scoring system: 0, no signs; 1, hindlimb weakness; 2, hindlimb weakness and tail paralysis; 3, hindlimb and tail paralysis; 4, hindlimb and tail paralysis and forelimb weakness; 5, moribund state; and 6, death. The peak (waxing phase) occured around day 21. In this C57BL/6J mouse model, there was no waning phase as assessed in our laboratory up to day 41.
The experiment was carried out with ten mice per group. The mice of each group were treating with either of: • PBS; • PepReg (SEQ ID NO: 3); or • PepScra (SEQ ID NO: 14).
The dosing was of 50 μg of peptide per mice and per day (i.e. about 2 mg/Kg per day). The peptide was administered by a subcutaneous injection.

[4] = tested on: CD4+ cells from C57Bl6 mice; assay: CD4+ T cell activation, early activation marker CD69 by flow cytometry; format: cell-based, mouse; conditions: 18 hours culture
Experimental: Alternatively, the T-cell proliferation assay may comprise comparing expression levels of the early activation marker CD69 in T-cells cultured either in the presence or in the absence of the compound to be tested. This assay may for example be performed as follows: • providing purified CD4+ cells (e.g. purified from C57B16 mice); • stimulating said CD4+ cells by addition of anti-CD3 purified antibodies and bone marrow derived dendritic cells; • culturing the cells for about 18 hours; and • analyzing said cells for the expression of the early activation marker CD69, e.g. by flow cytometry; and • comparing CD69 expression in the presence of the compound to be tested.
The immunosuppressive properties of PepReg (10aa) vs the 23 aa parent peptide were evaluated in vitro. Negatively purified CD4+ cells from C57Bl6 mice were stimulated by soluble anti-CD3 purified antibodies and bone marrow derived dendritic cells. Cells from triplicate wells were analyzed for the expression of the early activation marker CD69 after 18 hours culture in complete RPMI medium supplemented with 10% fetal calf serum.

T cell proliferation = assay: Suppression of T cell proliferation by [H3] thymidin incorporation, long culture; format: cell-based, mouse; conditions: culture at 37° C. in 10% serum
[5] = associated with disease protection

## LAPWKK (mouse or human-derived CD31 peptide) [SEQ ID NO: 2]
T-cell activation
  inhibition of T-cell activation: capable of inhibiting T-cell activation

## NH2 - SMPAVRSRFSATSLVTLKSRWPK -COOH (H-SMPAVRSRFSATSLVTLKSRWPK-OH) [scramble peptide, scramble peptide used as control for the 23-mer, reference compound]
[1]
  proliferation of CD31+/+ spleen cells in response to TCR stimulation: No effect; also recorded: ineffective
[2]
  suppression of distal recall of a hapten-elicited specific immune response (ear thickness): ineffective

## scrambled peptide: scramble peptide of SEQ ID NO: 14 used as control for PepReg; sequence not printed (WPKLRKFVAV; scramble peptide) [reference compound]
[3]; 50 μg per mice per day subcutaneous
  beneficial effect in EAE model: beneficial, although less than PepReg

## VRVFLAPWKK (mouse-derived CD31 peptide) [PepReg, ten COOH terminal amino acids of mouse CD31 peptide]
[3]; [5]
  infiltration of IL17+ and IFNg+ T helper CD4+ cells in the central nervous system: reduced infiltration
  proportion of regulatory CD25+/foxP3 CD4+ cells in the central nervous system: increased proportion
[3]; plateau phase (Days 21 through to 35), 50 μg per mice per day subcutaneous
  clinical score of EAE activity (paralysis level): reducing disease extension
[3]; waxing phase (Day 15), 50 μg per mice per day subcutaneous
  clinical score of EAE activity (paralysis level): arresting disease development
[4]
  dose at which suppression of CD69 expression was observed: 50 µg/mL
[4]; anti-CD3 and dendritic cells
  suppression of T cell activation (percentage of CD4 cells expressing CD69): at least as efficient as the 23aa peptide
T-cell activation
  inhibition of T-cell activation: capable of inhibiting T-cell activation
T cell proliferation
  persistence of suppression of T cell proliferation: up to 7 days
